Patent US10093627B2, “Tetrahydroquinoline derivatives and their use as Epac inhibitors” (Institut National de la Sante et de la Recherche Medicale …, priority 2012, dated 2018)

Tested on: Iso-induced ANF-Luc transcriptional activation
Test: ANF-Luc transcriptional activation (Firefly luciferase assay) in rat neonatal cardiomyocytes
Type: cell-based
Conditions: Iso 10 μM, 8 h; FIG. 4A
Experimental: ANF and NFAT promoters were fused to the Firefly luciferase gene (ANF-Luc) (NFAT-Luc) to detect ANF and NFAT by Firefly Luciferase assay (see Materiel and Methods).
Rat neonatal cardiomyocytes were cotransfected with ANF-Luc and Epac1 or empty vector pcDNA3 as control. One day after transfection, cells were pretreated or not with CE3F4 (20 μM) for 30 min and stimulated or not with Iso (10 μM) for 8 h. Cells were then assayed for Luciferase activity. B) Iso-induced NFAT-Luc Transcriptional Activation is Blocked by CE3F4: Neonatal cardiomyocytes were transfected with NFAT-Luc. One day later cells were pretreated or not with CE3F4 (20 μM) for 30 min and stimulated or not with Iso (10 μM) for 8 h. The day after, cells were assayed for Luciferase activity.
Results were normalized to control for each experiment, and were expressed as means±S.E.M of at 4 (FIG. 4A) or 5 (FIG. 4B) independent experiments performed in triplicates.
The rat ANF promoter fused to the Firefly luciferase reporter gene (ANF-Luc) by Dr K. Knowlton, Epac and Rap1 plasmid construct (Epac1^WT) by Drs J. L. Bos and J. de Gunzburg, respectively. The Firefly luciferase reporter plasmid driven by four NFAT consensus binding sites (NFAT-Luc) was purchased from Stratagene. […]
Cells were lysed, and luminescence was detected using the Luciferase Assay System (Promega) according to the manufacturer's instructions with Tecan Infinite.

Structure (SMILES): CC(C)NCC(O)c1ccc(O)c(O)c1 (stereo not shown) [Iso, Isoprenaline, reference compound]
- Effect of agonist on ANF (ANF-Luc): increased ANF
